# “Also recorded” adds a separate entry of the source.
# Key:
# [1] = Liver microsome stability; type: in vitro ADME, human
# Procedure: (§1) Plasma protein binding was measured using equilibrium dialysis; % bound=(1−[free compound in dialysate]/[total compound in retentate])×100. Plasma stability of […] compound in clarified freeze-thawed plasma was assessed by LC-MS/MS of supernatants after protein precipitation; 120 min data are reported for studies including 0, 10, 30, 60, and 120 min. Microsome stability of […] compound in liver microsomes (0.5 mg/ml) after 0, 5, 10, 20, 30, 60 min. incubation was assessed by LC/MS/MS of reaction extracts.
# [2] = system: Mfn2 null MEFs; assay: Mitochondrial elongation (aspect ratio) fusogenicity assay; type: cell-based, mouse
# Text: A cultured murine embryonic fibroblast assay system was used in which mitochondrial elongation (an increase in aspect ratio) reflects enhanced mitochondrial fusion.
# A pharmacophore model was generated based on the interactions of HR1 and HR2 domains in the calculated structural model of Mfn2 in the closed conformation. The key features included hydrophobic interactions involving Mfn2 HR1: Val372 and Met376, and aromatic interactions and hydrogen bonding involving Mfn2 HR1 His380. […] A library comprising ˜14 million commercially available compounds was prepared in silico and evaluated using PHASE to fit these criteria. Top ranked hits were clustered, and filtered based on pharmacological properties using Qikprop. The top 55 (see TABLE 4) commercially available small molecules conforming to the model were selected for functional screening and purchased in 1 mg aliquots. Each compound was dissolved to a stock concentration of 10 mM in DMSO and applied to Mfn2 null MEFs overnight at a final concentration of 1 mM. […] Images were acquired by confocal microscopy. Each compound was scored for fusogenicity (see e.g., FIG. 24A) and % cell death (see e.g., FIG. 24B).
# Wild-type MEFs were prepared from E10.5 c57/bl6 mouse embryos. […] MEFs were subcultured in DMEM (4.5 g/L glucose) plus 10% fetal bovine serum, 1× nonessential amino acids, 2 mM L-glutamine, 100U/ml penicillin and 100 ug/ml streptomycin.
# Cells were excited with 408 nm (Hoechst), […] (MitoTracker Green and Calcein AM, GFP), or 637 nm (TMRE, MitoTracker Orange, Ethidium homodimer-1, and AF594-Dextran) laser diodes. For mitochondrial elongation studies mitochondrial aspect ratio (long axis/short axis) was calculated using automated edge detection and Image J software. Mitochondrial depolarization was calculated as % of green mitochondria visualized on MitoTracker Green and TMRE merged images, expressed as green/(green+yellow mitochondria)×100.
# [3] = Parallel artificial membrane permeability assay (PAMPA); type: in vitro ADME
# [4] = molecular target: P-gp/MDR1 (Homo sapiens, UniProt P08183); assay: P-gp/MDR1 transport; type: in vitro ADME
# [5] = Solubility of library compounds in DMSO stock; type: physicochemical; conditions: stock concentration of 10 mM in DMSO
# Procedure: A pharmacophore model was generated based on the interactions of HR1 and HR2 domains in the calculated structural model of Mfn2 in the closed conformation. The key features included hydrophobic interactions involving Mfn2 HR1: Val372 and Met376, and aromatic interactions and hydrogen bonding involving Mfn2 HR1 His380. […] A library comprising ˜14 million commercially available compounds was prepared in silico and evaluated using PHASE to fit these criteria. Top ranked hits were clustered, and filtered based on pharmacological properties using Qikprop. The top 55 (see TABLE 4) commercially available small molecules conforming to the model were selected for functional screening and purchased in 1 mg aliquots. Each compound was dissolved to a stock concentration of 10 mM in DMSO and applied to Mfn2 null MEFs overnight at a final concentration of […]. Eleven of the library members were not soluble in DMSO at the required concentration. The 44 fully soluble compounds were screened in groups of 6 at a time for cytotoxicity (calcein AM/ethidium homodimer staining; ThermoFisher LIVE/DEAD Assay cat # L3224) and fusogenicity (increase in mitochondrial aspect ratio; MitoTracker Orange staining) compared to cells treated overnight with […] of the parent HR1 367-384 mitofusin agonist peptide (positive control) or vehicle (DMSO). Images were acquired by confocal microscopy. Each compound was scored for fusogenicity (see e.g., FIG. 24A) and % cell death (see e.g., FIG. 24B). Pharmacophore model fit generally correlated with actual fusogenic activity (Pearson correlation coefficient r=0.214; see e.g., FIG. 24A, inset; TABLE 4).
# [6] = system: CMT2A MFN2 T105M mice; assay: In vivo sciatic nerve mitochondrial motility in CMT2A mice; design: species or system mouse; conditions: IM 2 mg/kg twice, assessed 4 hours later
# Procedure: Sciatic nerve mitochondrial motility was measured 4 hours later. Results described in FIG. 58 are for 2 CMT2A mice per group.
# [7] = Plasma stability; type: in vitro ADME
# Procedure: as §1
# [8] = system: MFN2 T105M sciatic nerves; assay: Sciatic nerve axonal mitochondrial motility, agonist applied to nerve; conditions: MFN2 T105M mouse sciatic nerve
# Procedure: Sciatic nerves of 12-18 week old male or female MFN2 T105M mice were removed en bloc with the lumbar spine and axotomy at the tibial nerve, stained with TMEM ([…]) for 30 minutes in prewarmed Neurobasal Medium without phenol red (Thermo Fisher Scientific) at room temperature, washed, and maintained on the stage of a Nikon A1Rsi Confocal Microscope at 37 degrees C. for time-lapse confocal studies. Images were acquired with a 40× oil immersion objective at 1 frame every 5 or 10 seconds for sequential 10 minute periods. Mitofusin agonist chimera B-A/I was added after the first 10 minute imaging period (final concentrations of […]) and nerve axons imaged for another 40 minutes. Because there was no difference in mitochondrial trafficking or response to mitofusin agonist between male and female mice, the data were combined.
# [9] = Solubility in 50 mM phosphate buffer pH 7.4; type: physicochemical
# [10] = system: Mfn1/Mfn2 double null MEFs; assay: Mitochondrial elongation in Mfn1/Mfn2 double null MEFs; type: cell-based, mouse
# [11] = system: MFN2 Asp378 and Ala378 mutants; assay: Mitochondrial fusion in cells expressing MFN2 Ser378 mutants; type: cell-based, human; conditions: phosphomimic Asp378 vs nonphosphorylatable Ala378
# Text: On the basis of fluorescence resonance energy transfer (FRET) analysis of MFN2 labeled at the N and C termini, mitofusin agonists promoted an open MFN2 conformation favoring mitochondrial fusion, with a rank order paralleling that for HR2 binding and mitochondrial fusion (see e.g., FIG. 11G; compare to FIG. 11B and FIG. 11C), supporting allosteric activation.
# Human Mfn2 Ser378 was mutated to Ala or Asp by site-directed mutagenesis using the QuikChange Lightning kit (Agilent Technologies Inc.) and primers: […]
# Mfn2 and its mutants were sub-cloned into adenoviral vector Type 5 (dE1/E3) with RGD-fiber modification (Vector Biolabs) using BamHI/XhoI. All constructs were verified by Sanger DNA sequencing. Adeno-viral PINK1 was purchased from Vector Biolabs.
# [12] = molecular target: T1, Mfn2 HR2 target peptide (Homo sapiens, UniProt O95140); assay: HR1 peptide-HR2 target binding assay; conditions: in vitro binding assay devoid of cellular kinases
# T1 construct: Gly linker (GGGG after the His tag)
# T1 sequence (O95140 with tags, fused parts or gaps limits assumed): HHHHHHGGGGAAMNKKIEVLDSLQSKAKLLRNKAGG
# Text: The Mfn-derived fusion-promoting and -inhibiting mini-peptides (simulated to obtain the chemical Mfn agonists in TABLE 1 and TABLE 2) were modified from amino acid heptad repeats (HR) in the HR1 domain and predicted to interact with their counterparts in the carboxyl terminus HR2 domain within the Mfn stalk region (see e.g., FIG. 1, top panel). A high-throughput binding assay was designed whereby the target HR2 peptide sequences, modified to include amino terminal 6×His tags and Gly linkers, were bonded to Ni-chelate resin (20 μg/ml) and used as immobilized “receptor” for amino-FITC-tagged Mfn2 374-384 (agonist ligand) in which the Ser analogous to Ser378 was replaced with Asp to confer the negative charge essential for activity. For antagonist studies the ligand was amino-FITC-tagged Mfn2 406-418. The FITC peptide ligands are suspended at 1 mM in 30% DMSO, 70% water (to minimize spontaneous aggregation) and diluted into binding buffer (de-ionized water) to a final concentration of 25 μM in the presence or absence of competing compound. Dose-dependent loss of resin-bound FITC signal (485 nm excitation/538 nm emission) measured in a 96 well spectrofluorometer represents binding of compound to its HR2 target (see e.g., FIG. 10, FIG. 11). Either the ligand peptide or the receptor peptide can be modified to represent mutations, variations, or posttranslational modifications of Mfn2. […]
# Target HR2 peptide sequence modified to include amino terminal 6×His tags and Gly linkers, were bonded to Ni-NTA resin (4.4 μg/ml) (Quiagen) and used as immobilized “receptor” for amino-FITC-tagged Mfn2 374-384 (ligand) in which the Ser analogous to Ser378 was replaced with Asp to confer the negative charge essential for activity. […] Resin-bound FITC signal (485 nm excitation/538 nm emission) measured in a 96 well spectrofluorometer (Spectramax M5e, Molecular Devices) represented binding to HR2 target. Competition binding isotherms were plotted and IC50 values calculated using Prism 7 (Graph Pad).
# Sequence of P-gp/MDR1 (P08183 whole entry): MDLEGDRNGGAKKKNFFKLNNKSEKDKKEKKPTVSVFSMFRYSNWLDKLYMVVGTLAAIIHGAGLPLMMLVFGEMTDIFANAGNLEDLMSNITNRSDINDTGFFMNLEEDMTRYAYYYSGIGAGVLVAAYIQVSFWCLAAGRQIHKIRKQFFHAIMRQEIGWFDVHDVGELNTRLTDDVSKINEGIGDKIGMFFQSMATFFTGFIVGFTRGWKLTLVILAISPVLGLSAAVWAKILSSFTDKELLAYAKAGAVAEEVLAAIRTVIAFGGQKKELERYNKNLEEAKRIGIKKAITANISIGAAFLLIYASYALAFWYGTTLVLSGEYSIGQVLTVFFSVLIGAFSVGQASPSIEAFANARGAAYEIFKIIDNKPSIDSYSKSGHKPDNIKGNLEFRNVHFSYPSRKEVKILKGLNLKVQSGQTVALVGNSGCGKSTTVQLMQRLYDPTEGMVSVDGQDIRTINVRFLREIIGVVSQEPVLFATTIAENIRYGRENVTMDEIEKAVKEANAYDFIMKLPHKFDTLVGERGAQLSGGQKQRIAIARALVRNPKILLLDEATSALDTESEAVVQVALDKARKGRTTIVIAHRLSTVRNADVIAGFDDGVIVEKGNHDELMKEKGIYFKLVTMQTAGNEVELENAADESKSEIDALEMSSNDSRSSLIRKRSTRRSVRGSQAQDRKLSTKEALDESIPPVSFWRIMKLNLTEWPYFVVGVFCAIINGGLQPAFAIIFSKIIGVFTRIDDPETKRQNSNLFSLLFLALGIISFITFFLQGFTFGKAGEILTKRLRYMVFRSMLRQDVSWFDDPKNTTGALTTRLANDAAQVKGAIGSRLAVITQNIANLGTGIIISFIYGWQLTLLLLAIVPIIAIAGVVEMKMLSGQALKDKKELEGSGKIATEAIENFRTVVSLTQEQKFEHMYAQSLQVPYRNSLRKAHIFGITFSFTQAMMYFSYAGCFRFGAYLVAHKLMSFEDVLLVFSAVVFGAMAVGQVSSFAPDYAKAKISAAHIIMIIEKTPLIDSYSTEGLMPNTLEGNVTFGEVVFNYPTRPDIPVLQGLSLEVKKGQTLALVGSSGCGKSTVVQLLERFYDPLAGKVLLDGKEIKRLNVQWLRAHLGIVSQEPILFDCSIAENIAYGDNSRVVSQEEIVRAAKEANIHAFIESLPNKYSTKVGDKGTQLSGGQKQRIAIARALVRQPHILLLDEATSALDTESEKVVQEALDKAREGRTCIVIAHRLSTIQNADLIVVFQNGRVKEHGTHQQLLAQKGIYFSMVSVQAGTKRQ
molecule,measurement,setting,value
"Cn1c(SCC(=O)Nc2sc3c(c2C(N)=O)CCC3)nnc1-c1ccccc1 [1-61, 2-{2-[(4-methyl-5-phenyl-4H-1,2,4-triazol-3-yl)sulfanyl]acetamido}-4H,5H,6H-cyclopenta[b]thiophene-3-carboxamide]","liver microsome stability, in words",[1],greater resistance to liver microsomal degradation
same,"potency relative to other compounds, in words",[2],more potent
"CCn1c(SCC(=O)Nc2sc3c(c2C(N)=O)CCC3)nnc1C1CC1 [1-G11, 2-{2-[(5-cyclopropyl-4-ethyl-4H-1,2,4-triazol-3-yl)sulfanyl]acetamido}-4H,5H,6H-cyclopenta[b]thiophene-3-carboxamide]","liver microsome stability, in words",[1],greater resistance to liver microsomal degradation
same,"potency relative to other compounds, in words",[2],more potent
"CCn1c(CCCNC(=O)NC2CCOCC2)nnc1C1CC1 [Mitolityn-4, 1-(3-(5-cyclopropyl-4-ethyl-4H-1,2,4-triazol-3-yl)propyl)-3-(tetrahydro-2H-pyran-4-yl)urea]","liver microsome stability, in words",[1],stability in the liver microsome assay
same,"potency relative to other compounds, in words",[2],highest potency
same,"passive diffusion across lipid-infused artificial membrane (PAMPA), in words",[3],no passive diffusion across lipid membrane
same,"P-gp/MDR1 transport, in words",[4],no reverse transport by P-gp
"Cn1c(CCCNC(=O)NC2CCOCC2)nnc1C1CC1 [Mitolityn-6, 1-(3-(5-cyclopropyl-4-methyl-4H-1,2,4-triazol-3-yl)propyl)-3-(tetrahydro-2H-pyran-4-yl)urea]","liver microsome stability, in words",[1],stability in the liver microsome assay
same,"potency relative to other compounds, in words",[2],highest potency
"CCc1nnc(SC(CC)C(=O)N(CC)c2cccc(C)c2)c2cc3occc3n12 (stereo not drawn) [N-ethyl-2-({12-ethyl-5-oxa-1,10,11-triazatricyclo[6.4.0.0^2,^6]dodeca-2(6),3,7,9,11-pentaen-9-yl}sulfanyl)-N-(3-methylphenyl)butanamide]",Solubility in DMSO,[5],Insoluble
"O=C(NCCCc1nnc(C2CC2)n1-c1ccccc1)NC1CCOCC1 [Regeneurin-C/O, 1-(3-(5-cyclopropyl-4-phenyl-4H-1,2,4-triazol-3-yl)propyl)-3-(tetrahydro-2H-pyran-4-yl)urea]",sciatic nerve axon mitochondrial motility in vivo,[6],corrects CMT2A neuronal mitochondrial dymotility in vivo; also recorded: reverses the characteristic mitochondrial immobility in sciatic nerve axons
CC1CCCCC1NC(=O)NCCSc1nnc(C2CC2)n1-c1ccccc1 (stereo not drawn) [Regeneurin-S],"liver microsome stability, in words",[1],rapid degradation; also recorded: rapidly degraded by liver microsomes
same,"plasma stability, in words",[7],stable in plasma
same,sciatic nerve axonal mitochondrial motility,[8],rapidly correct mitochondrial dysmotility
same,"solubility, in words",[9],soluble
"CC1CCCCC1NC(=O)NCCSCc1ccccc1 (stereo not drawn) [compound A, 1-[2-(benzylsulfanyl)ethyl]-3-(2-methylcyclohexyl)urea]","fusogenic activity (mitochondrial elongation), in words",[2],induced mitochondrial elongation
same,mitochondrial elongation in absence of both mitofusins,[10],did not occur
same,selectivity of fusogenic effect for MFN2 Ser378 mutants,[11],specific for the Asp^378 mutant
"Ala^378 minipeptide: MFN2 374-384 minipeptide in which ""Ser^378 was substituted (with Ala, Cys, Asn or Gly)"": the Ala variant (LIMDALHMAAR; UniProt O95140 374-384, looked up, variant S378A)",binding of minipeptide to HR2 interacting domain,[12],did not
"Ser^378 minipeptide: ""smallest fusion promoting minipeptide (residues 374 to 384)"" of MFN2 HR1, with unsubstituted Ser^378 (LIMDSLHMAAR; UniProt O95140 374-384, looked up, fragment)",binding of minipeptide to HR2 interacting domain,[12],did not

# Reference: patent US11760733B2, “Small molecule regulators of mitochondrial fusion and methods of use thereof” (Washington University, priority 2017, dated 2023)
